{"source": "patent US6884421B2", "about": "“Pharmaceutical composition for diabetic nephropathy” (Council of Scientific and Industrial Research, priority 2002, dated 2005)", "key": {"diabetic rats [1]": {"tested_on": "diabetic rats", "assay": "Glomerular Filtration Rate from urinary and plasma creatinine in streptozotocin diabetic rats", "assay_type": "in vivo, Male Wistar rats", "conditions": "end of fifth week, mean ±SEM", "text": "Urinary creatinine is estimated by alkaline picrate reagent method. […] The plasma is deproteinsed using tungstic acid prior to creatinine estimation.\nThe formula used is [formula]"}, "diabetic rats [2]": {"tested_on": "diabetic rats", "assay": "Urinary protein excretion by TCA precipitation method in streptozotocin diabetic rats", "assay_type": "in vivo, Male Wistar rats", "conditions": "end of fifth week", "method": "Urinary protein is determined at the end of fifth week by TCA precipitation method and the absorbance is measured at 660 nm.\nDiabetes is induced in Male Wistar rats weighing between 120 g using streptozotocin at 55 mg/kg body weight and the rats are fed with wheat bran (1 to 5%), guar gum (1 to 2.5%) and butyric acid in the range of 1, 2, 4, 6, 8 and 10 mg/kg body weight/day in drinking water. After 4 days measuring fasting blood glucose level in the plasma and urinary sugar levels assessed the diabetic status.\nDiabetes is induced in Male Wistar rats weighing between 120 g using streptozotocin at 55 mg/kg body weight and the rats are fed with wheat bran (1 to 5%), guar gum (1 to 2.5%) and butyric acid in the range of 250, 500 and 750 mg/kg body weight/day in drinking water. After 4 days measuring fasting blood glucose level in the plasma and urinary sugar levels assessed the diabetic status.\nUrinary protein is determined at the end of fifth week by TCA precipitation method and the absorbance is measured at 660 nm (Table 2)."}, "[3]": {"conditions": "FFD-250: fibre fed (wheat bran, guar gum) diabetic rats, 250 mg butyric acid/kg body weight/day in drinking water"}, "[4]": {"conditions": "FFD-500: fibre fed (wheat bran, guar gum) diabetic rats, 500 mg butyric acid/kg body weight/day in drinking water"}, "[5]": {"conditions": "FFD-750: fibre fed (wheat bran, guar gum) diabetic rats, 750 mg butyric acid/kg body weight/day in drinking water"}, "[6]": {"conditions": "SFD-250: starch fed diabetic rats, 250 mg butyric acid/kg body weight/day in drinking water"}, "[7]": {"conditions": "SFD-500: starch fed diabetic rats, 500 mg butyric acid/kg body weight/day in drinking water"}, "[8]": {"conditions": "SFD-750: starch fed diabetic rats, 750 mg butyric acid/kg body weight/day in drinking water"}}, "note": "Marks after values point to notes of the source that are not given here.", "data": [{"molecule": "CCCC(=O)O", "note": "[butyric acid]", "values": [{"measurement": "GFR", "setting": "diabetic rats [1]; [3]", "result": "10.56 ± 1.05^b mL/min"}, {"measurement": "GFR", "setting": "diabetic rats [1]; [4]", "result": "9.23 ± 1.09^b mL/min"}, {"measurement": "GFR", "setting": "diabetic rats [1]; [5]", "result": "11.64 ± 1.27^b mL/min"}, {"measurement": "GFR", "setting": "diabetic rats [1]; [6]", "result": "15.99 ± 1.30", "unit": "mL/min"}, {"measurement": "GFR", "setting": "diabetic rats [1]; [7]", "result": "15.60 ± 1.21", "unit": "mL/min"}, {"measurement": "GFR", "setting": "diabetic rats [1]; [8]", "result": "15.23 ± 1.04", "unit": "mL/min"}, {"measurement": "Urinary protein", "setting": "diabetic rats [2]; [3]", "result": "104.07 ± 11.31^b mg/24 h"}, {"measurement": "Urinary protein", "setting": "diabetic rats [2]; [4]", "result": "88.82 ± 9.82^b mg/24 h"}, {"measurement": "Urinary protein", "setting": "diabetic rats [2]; [5]", "result": "90.37 ± 9.14^b mg/24 h"}, {"measurement": "Urinary protein", "setting": "diabetic rats [2]; [6]", "result": "126.77 ± 9.82", "unit": "mg/24 h"}, {"measurement": "Urinary protein", "setting": "diabetic rats [2]; [7]", "result": "124.86 ± 6.81^b mg/24 h"}, {"measurement": "Urinary protein", "setting": "diabetic rats [2]; [8]", "result": "115.37 ± 10.91", "unit": "mg/24 h"}]}]}
